# Test results published in patent US20040063906A1, “Pna analogues” (priority 2000, published 2004).
# {LysNH2} = C-terminal lysine amide
# How the values were obtained:
# 5′-d(T)10 = experiment: Melting temperature (Tm) with 5′-d(T)10; type: binding; conditions: for Melting temperature (Tm), 5′-d(T)10 / Melting temperature (Tm), 5′-d(T)10, cooling curve: Table 2; for Melting temperature (Tm), 5′-d(T)10 / Melting temperature (Tm), X = T: heating curve; for Melting temperature (Tm), 5′-d(T)10 / Melting temperature (Tm), 5′-d(T)10, cooling curve / Melting temperature (Tm), X = T: medium salt buffer, pH 7.0; for Melting temperature (Tm), 5′-d(T)10: 1 K/min; for Melting temperature (Tm), 5′-d(T)10, cooling curve / Melting temperature (Tm), X = T, cooling curve: value in parentheses = cooling curve; for Melting temperature (Tm), X = T / Melting temperature (Tm), X = T, cooling curve: Table 3, DNA target 5′-d(TTT-TXT-TTT-T)-3′
# [1] = system: DNA target 5′-d(TTT-TXT-TTT-T)-3′, X = C; experiment: Melting temperature (Tm) with mismatch DNA target, X = C; type: binding; conditions: Table 3; for Melting temperature (Tm), X = C: heating curve, medium salt buffer, pH 7.0; for Melting temperature (Tm), X = C, cooling curve: value in parentheses = cooling curve
# Excerpt: (§1) The complex between PNA 2110 and DNA was further evaluated.
# 5′-r(U)10 [2] = experiment: Melting temperature (Tm) with 5′-r(U)10; type: binding; conditions: for Melting temperature (Tm), 5′-r(U)10 / Melting temperature (Tm), 5′-r(U)10, cooling curve: Table 2, medium salt buffer, pH 7.0; for Melting temperature (Tm), 5′-r(U)10: heating curve, 1 K/min; for Melting temperature (Tm), 5′-r(U)10, cooling curve: value in parentheses = cooling curve
# [3] = system: DNA target 5′-d(TTT-TXT-TTT-T)-3′, X = A; experiment: Melting temperature (Tm) with mismatch DNA target, X = A; type: binding; conditions: Table 3
# Excerpt: as §1
# [4] = system: DNA target 5′-d(TTT-TXT-TTT-T)-3′, X = G; experiment: Melting temperature (Tm) with mismatch DNA target, X = G; type: binding; conditions: Table 3; for Melting temperature (Tm), X = G: heating curve, medium salt buffer, pH 7.0; for Melting temperature (Tm), X = G, cooling curve: value in parentheses = cooling curve
# Excerpt: as §1
# 5′-r(U)10 [5] = conditions: earlier work (17); cited from earlier work
# poly dA = experiment: Thermal denaturation (Tm) with poly dA; type: binding; conditions: for Melting temperature (Tm), Poly dA: measured from 10 to 90 °C, medium salt buffer, pH 7.0, 0.5 K/min; for Melting temperature (Tm), Poly dA, measured from 90 to 10 °C: value in parentheses
# Excerpt: (§2) Binding. The binding of PNA 1164 and PNA 2121 to poly dA and poly A was studied by thermal denaturation (Tm, Table 4). Also listed are the values given by Hickman et. al. (29) The thermal stability results presented in Table 4 clearly indicate that a T5-PNA-oligomer having (2R, 4S)-pyrrolidine backbone (PNA 2121) forms stronger complexes with both poly dA and poly A as compared to the (2R, 4R)-pyrrolidine isomer (entry 3) and also compared to the parent aminoethylglycine PNA (PNA 1164, entry 1). These complexes are ascribed to triplexes and further studies on (pyrimidine-purine mixed sequences) pyrrolidine PNAs are required to establish whether the present results can be extended to duplex structures and are generally valid. Such studies are now in progress.
# poly A = experiment: Thermal denaturation (Tm) with poly A; type: binding; conditions: for Melting temperature (Tm), Poly A: measured from 10 to 90 °C, medium salt buffer, pH 7.0, 0.5 K/min; for Melting temperature (Tm), Poly A, measured from 90 to 10 °C: value in parentheses
# Excerpt: as §2
# [6] = system: DNA antiparallel: 5′-dAGA GTA TGA GTA-3′; experiment: Thermal stability (Tm) of complex with antiparallel DNA; type: binding; conditions: pH 7.0; for Tm, DNA antiparallel, down: medium salt buffer
# Description: (§3) The binding properties of pyr-PNA oligomer consisting of 10 monomers of the following sequence: H-CTC ATA CTC T-Lys-NH2 were investigated by measuring the thermal stability of the complexes formed with sequence complementary DNA and RNA, respectively, as compared to the stability for the corresponding aeg-PNA oligomer.
# (§4) The stability expressed as the melting temperature (Tm), defined as the temperature at which 50% of the complexes have been dissociated, was determined as described by Arghya Ray et al (32).
# (§5) Measured in medium salt buffer: 100 mM NaCl, 10 mM Na-phosphate, 0.1 mM EDTA, pH=7.0.
# [7] = system: RNA antiparallel: 5′-AGA GUA UGA GUA-3′; experiment: Thermal stability (Tm) of complex with antiparallel RNA; type: binding; conditions: medium salt buffer, pH 7.0
# Description: as §3, §4, §5
# [8] = system: DNA parallel: 5′-dATG AGT ATG AGA-3′; experiment: Thermal stability (Tm) of complex with parallel DNA; type: binding; conditions: medium salt buffer, pH 7.0
# Description: as §3, §4, §5
# [9] = system: complementary RNA oligomers; experiment: Melting temperature (Tm) with complementary RNA oligomer, Table 1; type: binding; conditions: medium salt buffer: 100 mM NaCl, 10 mM phosphate, 0.1 mM EDTA, pH 7.0; heating rate 1 K/min; UV 254 nm
# Description: (§6) Binding affinity. The binding affinity towards complementary RNA and DNA oligomers was measured by obtaining the Tm-curves (Table 1). As expected, incorporation of both the pyrrolidinone and the pyrrolidine analogue into the PNA strand results in destabilization against DNA and RNA compared to unmodified PNA (entry 1 vs. 2 and 3).
# [10] = system: complementary DNA oligomers; experiment: Melting temperature (Tm) with complementary DNA oligomer, Table 1; type: binding; conditions: medium salt buffer: 100 mM NaCl, 10 mM phosphate, 0.1 mM EDTA, pH 7.0; heating rate 1 K/min; UV 254 nm
# Description: as §6
# [11] = as opposed to the parent PNA 186
# [12] = compared with PNA 186 (Table 2, entry 1 and 3)
# [13] = melting curves at pH 9 (not shown)
substance,measurement,setting,value
H-(A#)10-LysNH2 [PNA 2110],"Melting temperature (Tm), 5′-d(T)10",5′-d(T)10,79.0 °C
same,"Melting temperature (Tm), 5′-d(T)10, cooling curve",5′-d(T)10,41.0 °C
same,"Melting temperature (Tm), X = T",5′-d(T)10,79.0 °C
same,"Melting temperature (Tm), X = T, cooling curve",5′-d(T)10,(41.0) °C
same,Hysteresis of melting curves against DNA,5′-d(T)10; [11],significant hysteresis was detected
same,ΔTm/mod towards DNA,5′-d(T)10; [12],+2.5 °C
same,Recognition of 5′-d(T)10 (sequence specificity),5′-d(T)10; from mismatch Tm values of Table 3,sequence specific
same,"Lowering of Tm at pH 9 instead of pH 7, against DNA",5′-d(T)10; [13],about 3.5 °C
same,"Melting temperature (Tm), X = C",[1],71.0 °C
same,"Melting temperature (Tm), X = C, cooling curve",[1],36.0 °C
same,"Melting temperature (Tm), 5′-r(U)10",5′-r(U)10 [2],60.0 °C
same,"Melting temperature (Tm), 5′-r(U)10, cooling curve",5′-r(U)10 [2],45.5 °C
same,Hysteresis of melting curves against RNA,5′-r(U)10 [2]; [11],significant hysteresis was detected
same,ΔTm/mod towards RNA,5′-r(U)10 [2]; [12],+2.5 °C
same,"Lowering of Tm at pH 9 instead of pH 7, against RNA",5′-r(U)10 [2]; [13],~1.5 °C
same,"Melting temperature (Tm), X = A","[3]; heating curve, medium salt buffer, pH 7.0",67.5 °C
same,"Melting temperature (Tm), X = A, cooling curve",[3]; value in parentheses = cooling curve,35.5 °C
same,"Melting temperature (Tm), X = G",[4],68.5 °C
same,"Melting temperature (Tm), X = G, cooling curve",[4],37.0 °C
"H-(A*)10-LysNH2 [PNA 2020, reference compound]","Melting temperature (Tm), 5′-r(U)10",5′-r(U)10 [2],25.5 °C
same,Tm depression per modification as compared to unmodified PNA against r(U)10,5′-r(U)10 [5],1 °C
H-(T#)5-LysNH2 [PNA 2121],"Melting temperature (Tm), Poly dA",poly dA,78.5 °C
same,"Melting temperature (Tm), Poly dA, measured from 90 to 10 °C",poly dA,44.0 °C
same,"Melting temperature (Tm), Poly A",poly A,79.0 °C
same,"Melting temperature (Tm), Poly A, measured from 90 to 10 °C",poly A,51.5 °C
"H-(T)5-LysNH2 [PNA 1164, reference compound]","Melting temperature (Tm), Poly dA",poly dA,53.0 °C
same,"Melting temperature (Tm), Poly dA, measured from 90 to 10 °C",poly dA,45.5 °C
same,"Melting temperature (Tm), Poly A",poly A,64.0 °C
same,"Melting temperature (Tm), Poly A, measured from 90 to 10 °C",poly A,58.5 °C
"H-CTC ATA CTC T-Lys-NH2 [PNA 2232] (CTCATACTCT; all peptide nucleic acid (PNA), 3' {LysNH2}; further chemistry not fully specified) [pyr PNA oligomer of 10 monomers]","Tm, DNA antiparallel, down",[6],(58.0°) °C
same,"Tm, RNA antiparallel, down",[7],(41.0°) °C
same,"Tm, DNA parallel, down",[8],(61.5°) °C
"H-CTC ATA CTC T-Lys-NH2 [PNA 2244] (CTCATACTCT; all peptide nucleic acid (PNA), 3' {LysNH2}) [aeg PNA oligomer of 10 monomers, reference compound]","Tm, DNA antiparallel, down",[6],(43.0°) °C
same,"Tm, DNA antiparallel, up","[6]; medium salt buffer: 100 mM NaCl, 10 mM Na-phosphate, 0.1 mM EDTA",45.0° °C
same,"Tm, DNA parallel, down",[8],(43.5°) °C
same,"Tm, DNA parallel, up",[8],44.0° °C
"H-Gly-(A)10-NH2 [PNA 186, reference compound]","Melting temperature (Tm), 5′-d(T)10",5′-d(T)10,55.5 (55.5) °C
same,"Melting temperature (Tm), 5′-d(T)10, cooling curve",5′-d(T)10,55.5 (55.5) °C
same,"Melting temperature (Tm), X = T",5′-d(T)10,55.5 °C
same,"Melting temperature (Tm), X = T, cooling curve",5′-d(T)10,(55.5) °C
same,"Melting temperature (Tm), X = C",[1],36.5 (36.5) °C
same,"Melting temperature (Tm), X = C, cooling curve",[1],36.5 (36.5) °C
same,"Melting temperature (Tm), 5′-r(U)10",5′-r(U)10 [2],35.5 (35.5) °C
same,"Melting temperature (Tm), 5′-r(U)10, cooling curve",5′-r(U)10 [2],35.5 (35.5) °C
same,"Melting temperature (Tm), X = G",[4],40.5 (40.5) °C
same,"Melting temperature (Tm), X = G, cooling curve",[4],40.5 (40.5) °C
H-TAC-TCA#-TAC-TCT-LysNH2 [PNA 2104],"Melting temperature (Tm), RNA",[9],44.5 °C
same,"Melting temperature (Tm), DNA",[10],28.5 °C
"H-TAC-TCA*-TAC-TCT-LysNH2 (TACTCATACTCT; chemistry not fully specified) [PNA 2075, PNA dodecamer with one A* = (3S, 5R) pyrrolidone PNA monomer]","Melting temperature (Tm), RNA",[9],53.8 °C
same,"Melting temperature (Tm), DNA",[10],41.0 °C
"H-TAC-TCA-TAC-TCT-LysNH2 (TACTCATACTCT; all peptide nucleic acid (PNA), 3' {LysNH2}) [PNA 2005, unmodified PNA dodecamer]","Melting temperature (Tm), RNA",[9],59.5 °C
same,"Melting temperature (Tm), DNA",[10],49.5 °C
